Laboratory results: US11814376B2, “Hepatitis b core protein modulators” (Assembly Biosciences, Inc., priority 2015, dated 2023)

What was measured:
[1] = system: HBV viral load in AD38 cells; assay: Viral load production in AD38 cells, quantitative PCR of the core sequence in supernatant; format: cell-based; conditions: 10 μM compound, 6 days at 37° C., supernatant qPCR, relative to DMSO control; for activity at 10 µM: Hepatitis B virus, 144 h, read-out: AD38 Viral Load (%) (VL with cmpd/VL in DMSO control) at 10 μM
AD38 cells = assay: Viability of AD38 cells (Promega CellTiter-Glo); format: cell-based; conditions: 10 μM compound, 6 days, CellTiter-Glo luminescence normalized to DMSO control (100%)
Method in brief: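 After 6 days of compound exposure at 37° C (compound added as 10× solution in 10% DMSO; 50,000 cells/well, collagen-coated), medium was replaced with tetracycline-free DMEM/F12, 2% FBS, 1% DMSO. CellTiter-Glo luminescence was then recorded and normalized to DMSO-treated wells as 100% viability.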

SMILES	activity at 10 µM [1] [%]	AD38 Viability Normalized Result (cmpd/DMSO %) at 10 μM (AD38 cells) [%]	AD38 Viral Load (%) (VL with cmpd/VL in DMSO control) at 10 μM [1]
O=C(NCc1cnc(-c2ccc(O)nc2)s1)c1ccc2c(c1)NC(=O)c1ccccc1O2 [compound 1706, N-((2-(6-hydroxypyridin-3-yl)thiazol-5-yl)methyl)-11-oxo-10, 11-dihydrodibenzo [b, f] [1, 4] oxazepine-8-carboxamide]	57.5	103	–
O=C(NCc1cnc(-c2ccc(S(=O)(=O)CCCO)cc2)s1)c1ccc2c(c1)NC(=O)c1ccccc1S2(=O)=O [11063-B, N-((2-(4-((3-hydroxypropyl)sulfonyl)phenyl)thiazol-5-yl)methyl)-11-oxo-10, 11-dihydrodibenzo [b, f] [1, 4] thiazepine-8-carboxamide 5,5-dioxide]	5.4	95	–
CS(=O)(=O)Nc1ccc(-c2ncc(CNC(=O)c3ccc4c(c3)NC(=O)c3ccccc3S4(=O)=O)s2)cc1 [compound 1857]	1.5	107	–
CCCN1c2ccc(C(=O)NCc3cnc(C(F)(F)F)s3)cc2NC(=O)c2ccccc21 [compound 1916]	15.5	103	–
CN(C)CCOc1ncc(CN(C)C(=O)c2ccc3c(c2)NC(=O)c2ccccc2S3(=O)=O)s1 [compound 1660, N-((2-(2-(dimethylamino)ethoxy)thiazol-5-yl)methyl)-N-methyl-11-oxo-10, 11-dihydrodibenzo [b, f] [1, 4] thiazepine-8-carboxamide 5,5-dioxide]	86.8	102	–
Cl.NCCCOc1ccc(-c2ncc(CNC(=O)c3ccc4c(c3)NC(=O)c3ccccc3S4(=O)=O)s2)cc1 [compound 1988, N-((2-(4-(3-aminopropoxy)phenyl)thiazol-5-yl)methyl)-11-oxo-10, 11-dihydrodibenzo [b, f] [1, 4] thiazepine-8-carboxamide 5,5-dioxide hydrochloride]	1.3	103	–
CC(C)(C)NC(=O)c1ccc(-c2ncc(CNC(=O)c3ccc4c(c3)NC(=O)c3ccccc3S4(=O)=O)s2)cc1 [compound 1947]	2.3	101	–
O=C(NCc1cnc(N2CCCCCC2)s1)c1ccc2c(c1)NC(=O)c1ccccc1S2(=O)=O [compound 1907]	0.5	85	–
O=C1CCN(c2ncc(CNC(=O)c3ccc4c(c3)NC(=O)c3ccccc3S4(=O)=O)s2)CC1 [compound 1906]	7.8	89	–
CN(C)CCCS(=O)(=O)c1ccc(-c2ncc(CNC(=O)c3ccc4c(c3)NC(=O)c3ccccc3S4(=O)=O)s2)cc1.O=C(O)C(F)(F)F [compound 11033, N-((2-(4-((3-(dimethylamino)propyl)sulfonyl)phenyl)thiazol-5-yl)methyl)-11-oxo-10, 11-dihydrodibenzo [b, f] [1, 4] thiazepine-8-carboxamide 5,5-dioxide TFA salt]	17.1	95	–
O=C1Nc2c(cc(F)c(C(=O)NCc3cnc(-c4ccc(O)cc4)s3)c2F)Sc2ccccc21 [compound 1750]	1.1	107	–
O=C(NCc1cnc(-c2ccc(O)cc2F)s1)c1ccc2c(c1)NC(=O)c1ccccc1S2(=O)=O [compound 1670]	0.9	102	–
O=C(NCc1cnc(-c2cc(F)c(O)c(F)c2)s1)c1ccc2c(c1)NC(=O)c1ccccc1S2(=O)=O [compound 1665]	2.7	90	–
Cc1cc(-c2ncc(CNC(=O)c3ccc4c(c3)NC(=O)c3ccccc3O4)s2)ccc1O [compound 1736, N-((2-(4-hydroxy-3-methylphenyl)thiazol-5-yl)methyl)-11-oxo-10, 11-dihydrodibenzo [b, f] [1, 4] oxazepine-8-carboxamide]	6.8	94	–
O=C(NCc1cnc(-c2ccc(OCCCN3CCOCC3)cc2)s1)c1ccc2c(c1)NC(=O)c1ccccc1S2(=O)=O [compound 1993]	0.5	96	–
NC(=O)c1ccc(-c2ncc(CNC(=O)c3ccc4c(c3)NC(=O)c3ccccc3S4(=O)=O)s2)cc1 [compound 1764, N-((2-(4-carbamoylphenyl)thiazol-5-yl)methyl)-11-oxo-10, 11 dihydrodibenzo [b, f] [1, 4] thiazepine-8-carboxamide 5,5-dioxide]	1.1	107	–
CN1c2ccc(C(=O)NCc3cnc(-c4ccc(C#N)cc4)s3)cc2NC(=O)c2ccccc21 [compound 1974]	15.3	103	–
CN1CCN(c2ncc(CNC(=O)c3ccc4c(c3)NC(=O)c3ccccc3O4)s2)CC1 [compound 1694]	61.1	91	–

SMILES	activity at 10 µM [1] [%]	AD38 Viability Normalized Result (cmpd/DMSO %) at 10 μM (AD38 cells) [%]	AD38 Viral Load (%) (VL with cmpd/VL in DMSO control) at 10 μM [1]
Cl.O=C(NCc1cnc(-c2ccc(O[C@@H]3CCNC3)cc2)s1)c1ccc2c(c1)NC(=O)c1ccccc1S2(=O)=O [compound 11103, (R)-11-oxo-N-((2-(4-(pyrrolidin-3-yloxy)phenyl)thiazol-5-yl)methyl)-10, 11-dihydrodibenzo [b, f] [1, 4] thiazepine-8-carboxamide 5,5-dioxide hydrochloride]	2.5	102	–
O=C(NCc1cnc(-c2ccc(OCCN3CCOCC3)cc2)s1)c1ccc2c(c1)NC(=O)c1ccccc1S2(=O)=O [compound 1587]	2.8	99	–
CCOC(=O)c1cnn(-c2ncc(CNC(=O)c3ccc4c(c3)NC(=O)c3ccccc3S4(=O)=O)s2)c1 [compound 11116]	0.9	97	–
NC(=O)c1cccc(-c2ncc(CNC(=O)c3ccc4c(c3)NC(=O)c3ccccc3S4(=O)=O)s2)c1 [1677-B, N-((2-(3-carbamoylphenyl)thiazol-5-yl)methyl)-11-oxo-10, 11-dihydrodibenzo [b, f] [1, 4] thiazepine-8-carboxamide 5,5-dioxide]	2.4	89	–
O=C(NCc1cnc(-c2ccc3[nH]ncc3c2)s1)c1ccc2c(c1)NC(=O)c1ccccc1S2(=O)=O [compound 1805]	0.6	97	–
O=C(NCc1cnc(-c2ccc(F)cn2)s1)c1ccc2c(c1)NC(=O)c1ccccc1S2(=O)=O [compound 11040]	1.9	104	–
CN1CCN(c2ncc(CNC(=O)c3ccc4c(c3)NC(=O)c3ccccc3S4(=O)=O)s2)CC1 [compound 1648]	9.9	95	–
Cl.NCCc1ccccc1-c1ncc(CNC(=O)c2ccc3c(c2)NC(=O)c2ccccc2S3(=O)=O)s1 [compound 1842, N-((2-(2-(2-aminoethyl)phenyl)thiazol-5-yl)methyl)-11-oxo-10, 11-dihydrodibenzo [b, f] [1, 4] thiazepine-8-carboxamide 5,5-dioxide hydrochloride]	46.5	109	–
NS(=O)(=O)c1ccc(-c2ncc(CNC(=O)c3ccc4c(c3)NC(=O)c3ccccc3S4(=O)=O)s2)cc1 [compound 1856]	1.3	96	–
Cc1c(C(=O)NCc2cnc(-n3cccn3)s2)ccc2c1NC(=O)c1ccccc1S2(=O)=O [C38-02]	0.5	94	–
CC(=O)NCCCSc1ccc(-c2ncc(CNC(=O)c3ccc4c(c3)NC(=O)c3ccccc3S4(=O)=O)s2)cc1 [compound 11067, N-((2-(4-((3-acetamidopropyl)thio)phenyl)thiazol-5-yl)methyl)-11-oxo-10, 11-dihydrodibenzo [b, f] [1, 4] thiazepine-8-carboxamide 5,5-dioxide]	2.5	99	–
COc1ccc(-c2ncc(CNC(=O)c3ccc4c(c3)NC(=O)c3ccccc3S4)s2)cc1 [compound 1606]	3	91	–
CC(C)(C)OC(=O)NCCCS(=O)(=O)c1ccc(-c2ncc(CNC(=O)c3ccc4c(c3)NC(=O)c3ccccc3S4(=O)=O)s2)cc1 [11032-A, tert-butyl (3-((4-(5-((5,5-dioxido-11-oxo-10, 11-dihydrodibenzo [b, f] [1, 4]thiazepine-8-carboxamido)methyl)thiazol-2-yl)phenyl)sulfonyl)propyl) carbamate]	–	110	12.9
CC(C)(C)NCCCCc1ccc(-c2ncc(CNC(=O)c3ccc4c(c3)NC(=O)c3ccccc3S4(=O)=O)s2)cc1 [compound 11054]	14.1	102	–
CN(Cc1cnc(-c2ccc(O)cc2)s1)C(=O)c1ccc2c(c1)NC(=O)c1ccccc1S2(=O)=O [compound 1661]	45.2	90	–
CN(CCCOc1ccc(-c2ncc(CNC(=O)c3ccc4c(c3)NC(=O)c3ccccc3S4(=O)=O)s2)cc1)CC(F)(F)F [compound 1994]	0.9	92	–
C=CCN1c2ccc(C(=O)NCc3cnc(C(F)(F)F)s3)cc2NC(=O)c2ccccc21 [compound 1920]	48.8	85	–
